One experiment concerns the target T1, Polyphenol oxidase 2 (Agaricus bisporus, UniProt O42713).
T1 sequence (O42713 whole entry): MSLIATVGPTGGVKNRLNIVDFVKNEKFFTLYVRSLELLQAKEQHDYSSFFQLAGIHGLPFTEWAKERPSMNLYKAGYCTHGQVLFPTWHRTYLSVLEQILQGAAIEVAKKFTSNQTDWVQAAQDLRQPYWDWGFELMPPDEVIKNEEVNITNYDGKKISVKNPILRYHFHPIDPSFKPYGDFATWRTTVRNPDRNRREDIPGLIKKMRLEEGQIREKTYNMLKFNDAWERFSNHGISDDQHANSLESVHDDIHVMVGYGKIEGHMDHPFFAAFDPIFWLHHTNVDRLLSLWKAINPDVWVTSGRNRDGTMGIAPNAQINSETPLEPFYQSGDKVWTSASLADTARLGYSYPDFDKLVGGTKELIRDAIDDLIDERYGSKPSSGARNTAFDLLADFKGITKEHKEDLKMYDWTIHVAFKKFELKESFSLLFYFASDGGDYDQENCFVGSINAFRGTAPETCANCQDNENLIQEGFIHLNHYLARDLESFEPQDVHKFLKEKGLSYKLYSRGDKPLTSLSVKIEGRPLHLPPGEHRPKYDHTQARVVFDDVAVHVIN
Kind of experiment: Enzyme Assay. The note with it: pH 6.8; 25 °C.

The target in the next experiment is T2, Tyrosinase (Mus musculus, UniProt P11344).
T2 sequence (P11344 whole entry): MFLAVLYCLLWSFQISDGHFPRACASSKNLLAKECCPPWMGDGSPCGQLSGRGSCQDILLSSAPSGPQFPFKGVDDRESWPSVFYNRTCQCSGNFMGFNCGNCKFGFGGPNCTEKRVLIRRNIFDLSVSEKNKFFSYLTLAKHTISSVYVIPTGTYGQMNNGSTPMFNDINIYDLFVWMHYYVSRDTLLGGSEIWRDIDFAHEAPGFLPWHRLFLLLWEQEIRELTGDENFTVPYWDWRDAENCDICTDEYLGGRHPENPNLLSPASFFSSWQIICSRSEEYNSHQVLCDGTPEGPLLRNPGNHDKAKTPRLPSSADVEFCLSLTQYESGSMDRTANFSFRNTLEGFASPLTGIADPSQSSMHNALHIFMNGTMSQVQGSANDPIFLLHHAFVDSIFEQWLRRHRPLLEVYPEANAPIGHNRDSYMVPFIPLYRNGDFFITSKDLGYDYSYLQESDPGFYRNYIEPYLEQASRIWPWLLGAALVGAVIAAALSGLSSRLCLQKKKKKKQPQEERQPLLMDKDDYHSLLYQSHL
The experiment can be described thus: Enzyme Assay. The note with it: pH 6.8; 25 °C.

In the case of `Oc1ccc(O)cc1`, the IC50 – broadly, the concentration at which inhibition is half-maximal – at Polyphenol oxidase 2 came out at 87.6 µM; at Tyrosinase, 188 µM. At Polyphenol oxidase 2, `OCC1OC(Oc2ccc(O)cc2)C(O)C(O)C1O` (centres undefined) [2-Hydroxymethyl-6-(4-hydroxy-phenoxy)-tetrahydro-pyran-3,4,5-triol] displayed an IC50 of 296 µM. In the case of `COc1ccc(/C=C2/SC(=S)N(CCC(=O)O)C2=O)cc1` [3-[(5E)-5-[(4-methoxyphenyl)methylidene]-4-oxo-2-sulfanylidene-3-thiazolidinyl]propanoic acid], the concentration for half-maximal inhibition (IC50) was 894 µM at Polyphenol oxidase 2 and 2390 µM against Tyrosinase. The like results for `OCc1ccc(O)cc1` [4-Hydroxybenzyl alcohol] were, in that order, 350 µM and 650 µM. The like results for `COc1cc(-c2nc(S(=O)(=O)c3ccc(C)cc3)c(N3CCOCC3)o2)cc(OC)c1OC` [4-[4-(4-methylphenyl)sulfonyl-2-(3,4,5-trimethoxyphenyl)-5-oxazolyl]morpholine] were, in that order, 402 µM and 952 µM.

(Values after BindingDB's records for doi:10.1080/14756360701654894 (National Tsing Hua University, 2008).)
